Test results as given in PubChem BioAssay AID256 (DTP/NCI, 2004).
Several values for one entry are separate records, joined by “and”; a condition that tells them apart may be missing. Identical values can stand only once. Inconclusive results and toxic doses are left out. Rule for the calls: active = survival T/C of 150% or more; inactive = T/C below 125% in these data.

Tested on: CD2F1 mice, L1210 leukemia ip, survival T/C
Experiment: NCI In Vivo Anticancer Drug Screen. Data for tumor model L1210 Leukemia (intraperitoneal) in CD2F1 (CDF1) mice
Details: higher = longer survival
Outline: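 Compound-dosed mice with transplantable tumor versus matched vehicle controls; endpoint ratio T/C reported.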

[1] = endpoint: mean survival time, dose: 50.0 mg/kg/injection, schedule: Q01DX001 (ip), vehicle: saline with Tween-80
[2] = endpoint: mean survival time, dose: 100.0 mg/kg/injection, schedule: Q01DX001 (ip), vehicle: saline with Tween-80
[3] = endpoint: mean survival time, dose: 200.0 mg/kg/injection, schedule: Q01DX001 (ip), vehicle: saline with Tween-80
[4] = endpoint: mean survival time, dose: 100.0 mg/kg/injection, schedule: Q04DX002 (ip), vehicle: saline with Tween-80
[5] = endpoint: mean survival time, dose: 200.0 mg/kg/injection, schedule: Q04DX002 (ip), vehicle: saline with Tween-80
[6] = endpoint: mean survival time, dose: 400.0 mg/kg/injection, schedule: Q04DX002 (ip), vehicle: saline with Tween-80
[7] = endpoint: mean survival time, dose: 100.0 mg/kg/injection, schedule: Q04DX003 (ip), vehicle: saline with Tween-80
[8] = endpoint: mean survival time, dose: 200.0 mg/kg/injection, schedule: Q04DX003 (ip), vehicle: saline with Tween-80
[9] = endpoint: mean survival time, dose: 400.0 mg/kg/injection, schedule: Q04DX003 (ip), vehicle: saline with Tween-80
[10] = endpoint: mean survival time, dose: 100.0 mg/kg/injection, schedule: Q01DX009 (ip), vehicle: saline with Tween-80
[11] = endpoint: mean survival time, dose: 200.0 mg/kg/injection, schedule: Q01DX009 (ip), vehicle: saline with Tween-80
[12] = endpoint: mean survival time, dose: 400.0 mg/kg/injection, schedule: Q01DX009 (ip), vehicle: saline with Tween-80
[13] = endpoint: mean survival time, dose: 100.0 mg/kg/injection, schedule: Q04DX003 (ip), vehicle: acetone

Measured: T/C

IC1CCC[N-]C1.IC1CCC[N-]C1.[Cl][Pt+2][Cl] (stereo not given)
inactive: [1] 95 % of control | [2] 93 % of control | [3] 95 % of control

O=C1OCc2ccccc21
inactive: [4] 96 % of control | [5] 100 % of control | [6] 100 % of control

O=[N+]([O-])c1cc([N+](=O)[O-])c2nc3ccccn3c2c1
inactive: [7] 101 % of control | [8] 101 % of control | [9] 101 % of control

N=Cc1c(O)n(-c2ccccc2)c(=O)n(-c2ccccc2)c1=O
inactive: [7] 94 % of control | [8] 94 % of control | [9] 92 % of control

Clc1ccccc1CCCBr
inactive: [10] 96 % of control | [7] 92 % of control | [11] 104 % of control | [8] 97 % of control | [12] 106 % of control | [9] 88 % of control

CS/C(N)=N\C(=O)N(C)C
inactive: [10] 98 % of control | [11] 110 % of control | [12] 103 % of control

COC(=O)C1(C(=O)OC)C2C(=O)C3C(C21)C3(C(=O)OC(C)(C)C)C(=O)OC(C)(C)C (stereo not given)
inactive: [10] 96 % of control | [11] 94 % of control | [12] 93 % of control

CC(=O)Nc1c(F)c(F)c(F)c(F)c1F
inactive: [2] 102 % of control | [3] 95 % of control | endpoint: mean survival time, dose: 400.0 mg/kg/injection, schedule: Q01DX001 (ip), vehicle: saline with Tween-80 94 % of control

O=C(CCl)Nc1ccc(SSc2ccc(NC(=O)CCl)cc2)cc1
inactive: endpoint: mean survival time, dose: 25.0 mg/kg/injection, schedule: Q01DX009 (ip), vehicle: Klucel (hydroxypropylcellulose) (HPC) 95 % of control | endpoint: mean survival time, dose: 50.0 mg/kg/injection, schedule: Q01DX009 (ip), vehicle: Klucel (hydroxypropylcellulose) (HPC) 96 % of control | endpoint: mean survival time, dose: 100.0 mg/kg/injection, schedule: Q01DX009 (ip), vehicle: Klucel (hydroxypropylcellulose) (HPC) 93 % of control

N#CCN(CC#N)c1ccccc1
inactive: endpoint: mean survival time, dose: 1.56 mg/kg/injection, schedule: Q01DX001 (ip), vehicle: other 95 % of control | endpoint: mean survival time, dose: 3.13 mg/kg/injection, schedule: Q01DX001 (ip), vehicle: other 95 % of control | endpoint: mean survival time, dose: 6.25 mg/kg/injection, schedule: Q01DX001 (ip), vehicle: other 98 % of control and 100 % of control

CC(C)(C)C(=O)CC(=O)C(C)(C)C.CC(C)(C)C(=O)CC(=O)C(C)(C)C.CC(C)(C)C(=O)CC(=O)C(C)(C)C.[Sc]
inactive: endpoint: mean survival time, dose: 50.0 mg/kg/injection, schedule: Q04DX003 (ip), vehicle: saline with Tween-80 94 % of control | [7] 94 % of control and 100 % of control | [8] 97 % of control and 104 % of control | [9] 95 % of control

CCC12C[N+]3([O-])CCc4c([nH]c5ccccc45)C(C(=O)OC)(c4cc5c(cc4OC)N(C)C4C(O)(C(=O)OC)C(OC(C)=O)C6(CC)C=CCN7CCC54C76)CC(C3)C1O2 (stereo not given)
inactive: endpoint: median survival time, dose: 0.62 mg/kg/injection, schedule: Q01DX009 (ip), vehicle: water 98 % of control | endpoint: median survival time, dose: 1.25 mg/kg/injection, schedule: Q01DX009 (ip), vehicle: water 103 % of control | endpoint: median survival time, dose: 2.5 mg/kg/injection, schedule: Q01DX009 (ip), vehicle: water 98 % of control and 105 % of control and 107 % of control | endpoint: median survival time, dose: 5.0 mg/kg/injection, schedule: Q01DX009 (ip), vehicle: water 101 % of control and 105 % of control and 110 % of control | endpoint: median survival time, dose: 10.0 mg/kg/injection, schedule: Q01DX009 (ip), vehicle: water 115 % of control and 117 % of control | endpoint: median survival time, dose: 20.0 mg/kg/injection, schedule: Q01DX009 (ip), vehicle: water 117 % of control and 119 % of control and 112 % of control

CC(=O)Nc1nc(C)cs1
inactive: endpoint: mean survival time, dose: 75.0 mg/kg/injection, schedule: Q01DX001 (ip), vehicle: saline 98 % of control | endpoint: mean survival time, dose: 150.0 mg/kg/injection, schedule: Q01DX001 (ip), vehicle: saline 97 % of control | endpoint: mean survival time, dose: 300.0 mg/kg/injection, schedule: Q01DX001 (ip), vehicle: saline 98 % of control

Cc1nccc2cc3c(cc12)Cc1ccccc1-3
inactive: [4] 88 % of control | [5] 92 % of control | [6] 88 % of control

Cc1ccc(C(=O)O)s1
inactive: [7] 91 % of control | [8] 97 % of control

COc1cc(O)c(Cc2ccccc2O)c(O)c1C(=O)CCc1ccccc1
inactive: endpoint: mean survival time, dose: 1.25 mg/kg/injection, schedule: Q01DX009 (ip), vehicle: saline with Tween-80 105 % of control | endpoint: mean survival time, dose: 2.5 mg/kg/injection, schedule: Q01DX009 (ip), vehicle: saline with Tween-80 100 % of control | endpoint: mean survival time, dose: 5.0 mg/kg/injection, schedule: Q01DX009 (ip), vehicle: saline with Tween-80 97 % of control | endpoint: mean survival time, dose: 10.0 mg/kg/injection, schedule: Q01DX009 (ip), vehicle: saline with Tween-80 105 % of control | endpoint: mean survival time, dose: 20.0 mg/kg/injection, schedule: Q01DX009 (ip), vehicle: saline with Tween-80 100 % of control

COC(=O)CC(N)C(=O)O (stereo not given)
inactive: endpoint: median survival time, dose: 6.25 mg/kg/injection, schedule: Q01DX009 (ip), vehicle: saline 100 % of control | endpoint: median survival time, dose: 12.5 mg/kg/injection, schedule: Q01DX009 (ip), vehicle: saline 97 % of control | endpoint: median survival time, dose: 25.0 mg/kg/injection, schedule: Q01DX009 (ip), vehicle: saline 98 % of control | endpoint: median survival time, dose: 50.0 mg/kg/injection, schedule: Q01DX009 (ip), vehicle: saline 94 % of control | endpoint: median survival time, dose: 100.0 mg/kg/injection, schedule: Q01DX009 (ip), vehicle: saline 98 % of control | endpoint: median survival time, dose: 200.0 mg/kg/injection, schedule: Q01DX009 (ip), vehicle: saline 97 % of control

CCOC(=O)C1(C(=O)OCC)CC2(COC(c3ccccc3)OC2)C1
inactive: endpoint: mean survival time, dose: 100.0 mg/kg/injection, schedule: Q04DX003 (ip), vehicle: saline 97 % of control | endpoint: mean survival time, dose: 200.0 mg/kg/injection, schedule: Q04DX003 (ip), vehicle: saline 97 % of control | endpoint: mean survival time, dose: 400.0 mg/kg/injection, schedule: Q04DX003 (ip), vehicle: saline 95 % of control

CCC[As](=O)(O)CC[As](=O)(O)CCC
inactive: endpoint: mean survival time, dose: 25.0 mg/kg/injection, schedule: Q01DX001 (ip), vehicle: saline with Tween-80 95 % of control | [1] 95 % of control | [2] 103 % of control

O=C1CCC(=O)N1C1C=CC=CC=C1
inactive: endpoint: mean survival time, dose: 50.0 mg/kg/injection, schedule: Q04DX003 (ip), vehicle: acetone 98 % of control | [13] 107 % of control

COC(=O)CCCCCCCCCC(=O)OC
inactive: [4] 87 % of control | [5] 102 % of control | [6] 98 % of control

CCOC(=O)CC(C)(O)Cc1ccccc1 (stereo not given)
inactive: [13] 96 % of control | endpoint: mean survival time, dose: 200.0 mg/kg/injection, schedule: Q04DX003 (ip), vehicle: acetone 87 % of control | endpoint: mean survival time, dose: 400.0 mg/kg/injection, schedule: Q04DX003 (ip), vehicle: acetone 102 % of control

O=C1C=C(c2ccc(O)cc2)CO1
inactive: [7] 97 % of control | [8] 94 % of control | [9] 97 % of control

O=C1/C(=C/C2CCC3CCCCC3[N-]2)N2CCC1CC2.[Cl][Co][Cl] (stereo not given)
inactive: endpoint: mean survival time, dose: 9.4 mg/kg/injection, schedule: Q04DX003 (ip), vehicle: saline 102 % of control | endpoint: mean survival time, dose: 18.8 mg/kg/injection, schedule: Q04DX003 (ip), vehicle: saline 100 % of control | endpoint: mean survival time, dose: 37.5 mg/kg/injection, schedule: Q04DX003 (ip), vehicle: saline 109 % of control

Cc1cc([N+](=O)[O-])c(Cl)cc1NS(=O)(=O)c1ccccc1
inactive: endpoint: mean survival time, dose: 50.0 mg/kg/injection, schedule: Q01DX009 (ip), vehicle: saline with Tween-80 103 % of control | [10] 101 % of control | [11] 94 % of control
